{
  "source": "patent US7282522B2",
  "about": "“Hydroxamic acid derivatives and the method for preparing thereof” (Amorepacific Corporation, priority 2003, dated 2007)",
  "key": {"rabbits [1]": {"system": "rabbits", "conditions": "rabbit, in vivo", "description": "(§1) Test was performed using fifty-six (56) of healthy male rabbits whose backs were depilated. […] 0.5ml of the test sample solution was applied to the right site of 2.5 cm×2.5 cm region on each of the depilated back. Left site with no sample treated was compared as a control. 24 hours or 72 hours later, skin abnormality such as erythema, crust and edema was observed.\n(§2) Based on the score of skin response, skin irritation was evaluated according to Draize's P.I.I.(Primary Irritation Index) and compared with retinoic acid."}, "RARγ": {"target": "T1, RARγ (Homo sapiens, UniProt P13631)", "T1 construct": "expressed in transfected cells; host or cells: CV-1 cells (ATCC)", "T1 sequence (P13631 1-454)": "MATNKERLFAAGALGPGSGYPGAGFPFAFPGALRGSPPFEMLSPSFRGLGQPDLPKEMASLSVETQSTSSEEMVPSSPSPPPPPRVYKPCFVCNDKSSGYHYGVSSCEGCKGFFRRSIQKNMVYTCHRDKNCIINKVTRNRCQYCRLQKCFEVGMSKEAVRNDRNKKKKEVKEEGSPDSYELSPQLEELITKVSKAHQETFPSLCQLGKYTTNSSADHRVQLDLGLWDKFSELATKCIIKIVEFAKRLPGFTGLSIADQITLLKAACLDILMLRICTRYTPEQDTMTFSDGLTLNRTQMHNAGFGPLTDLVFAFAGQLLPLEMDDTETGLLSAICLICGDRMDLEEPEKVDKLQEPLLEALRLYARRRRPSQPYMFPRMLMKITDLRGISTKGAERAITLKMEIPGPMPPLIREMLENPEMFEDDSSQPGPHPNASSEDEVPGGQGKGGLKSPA", "assay": "RARE-luciferase reporter assay in transfected CV-1 cells (affinity to retinoic acid receptor), RARγ", "type": "cell-based", "conditions": "treated 24 hours at final concentration 10^−4M, control group 5000", "outline": "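CV-1 cells in DMEM with 2.5% FBS, 5,000 per well, transfected 24 h after seeding with 10 ng pECE-RARα, pECE-RARγ, 100 ng RARE-tk-Luc reporter and 100 ng β-galactosidase vector. Read-out is RARE-driven luciferase.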"}, "white guinea pigs": {"system": "white guinea pigs", "assay": "Phototoxicity test (UVA irradiation)", "conditions": "for Evaluation (phototoxicity): 1%(w/v) solution, UVA 15 J/cm^2; for Phototoxic index: 50 μl of 1%(w/v) solution, UVA 320~380 nm 15 J/cm^2, observed 24, 48 and 72 hours", "description": "Test was performed for twenty-five (25) of white guinea pigs whose backs were depilated and fixed. On both sides of the back, six(6) sites of 2 cm×2 cm, three(3) per side were sectioned. Right sites were compared as controls with no irradiation (UV non-irradiation sites) and left sites were irradiated (UV irradiation sites).\n30 Minutes later, right sites were shielded with aluminum foil and UVA(320˜380 nm) was irradiated at a distance of about 10 cm therefrom using Waldmann to the final energy of 15 J/cm^2. After 24, 48 and 72 hours elapsed, skin response of guinea pig was observed. […] Evaluation was estimated for each elapsed time, i.e. 24, 48 and 72 hours and maximum scores were selected, to calculate irritation index by the following equation 3. Then, phototoxic index was calculated by the following equation 4. Irritation index=(ΣMaximum of erythema+ΣMaximum of edema)/Number of animals [Equation 3] Phototoxic index=(Irritation index of UV irradiation site)−(Irritation index of UV non-irradiation site) Equation 4]"}, "procollagen type I": {"system": "procollagen type I", "assay": "Effect on collagen biosynthesis (procollagen type I ELISA) in human fibroblasts", "type": "cell-based", "conditions": "10^−4M, 24 hours, serum-free medium, relative to control group = 100", "procedure": "Human fibroblasts were seeded into 24-well plate at 1×10^5 cells per well and then cultured to 90% of growth.\nFor each supernatant, procollagen production was measured with procollagen type I ELISA kit."}, "collagenase": {"system": "collagenase", "assay": "Inhibition of collagenase expression in human fibroblasts (ELISA kit)", "type": "cell-based", "conditions": "10^−4M, 24 hours, serum-free medium, relative to control group = 100", "outline": "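Serum-starved human fibroblasts were treated for 24 h with 10^−4M test material in serum-free DMEM. Collagenase in the culture fluid was measured by sandwich ELISA read at 405 nm. Values are expressed as % of the untreated control (=100).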"}, "RARα": {"target": "T2, RARα (Homo sapiens, UniProt P10276)", "T2 construct": "expressed in transfected cells; host or cells: CV-1 cells (ATCC)", "T2 sequence (P10276 1-462)": "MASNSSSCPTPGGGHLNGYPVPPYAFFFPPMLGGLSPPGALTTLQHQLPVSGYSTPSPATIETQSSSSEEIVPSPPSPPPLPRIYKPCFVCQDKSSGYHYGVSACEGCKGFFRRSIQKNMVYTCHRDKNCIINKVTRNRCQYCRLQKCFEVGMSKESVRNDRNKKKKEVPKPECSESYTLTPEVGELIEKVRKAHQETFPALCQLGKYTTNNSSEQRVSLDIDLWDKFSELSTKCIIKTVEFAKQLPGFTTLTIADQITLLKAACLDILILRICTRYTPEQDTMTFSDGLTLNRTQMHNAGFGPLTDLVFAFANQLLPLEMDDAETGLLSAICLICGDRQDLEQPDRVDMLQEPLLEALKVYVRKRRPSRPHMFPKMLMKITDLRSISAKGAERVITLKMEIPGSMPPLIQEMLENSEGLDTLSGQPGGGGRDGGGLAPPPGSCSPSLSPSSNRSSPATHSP", "assay": "RARE-luciferase reporter assay in transfected CV-1 cells (affinity to retinoic acid receptor), RARα", "type": "cell-based", "conditions": "treated 24 hours at final concentration 10^−4M, control group 1000", "outline": "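CV-1 cells co-transfected with pECE-RARα or pECE-RARγ, RARE-tk-Luc reporter and β-galactosidase vector. Starting 24 h post-transfection, cells were treated for 24 h with compounds at a final 10^−4M; luciferase reporter read-out.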"}, "elastase": {"system": "elastase", "assay": "Inhibition of elastase expression in human fibroblasts (ELISA kit)", "type": "cell-based", "conditions": "10^−4M, 24 hours, serum-free medium, relative to control group = 100", "outline": "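Elastase in fibroblast culture fluid quantified by sandwich ELISA: 3 h capture, then chromophore-conjugated secondary antibody, then colour development, stopped with 1M sulfuric acid. Absorbance read at 405 nm. Expression given as % of the untreated control absorbance, with control set to 100.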"}, "rabbits [2]": {"system": "rabbits", "assay": "Primary skin irritation test on animals (Draize P.I.I.)", "conditions": "depilated back; for P.I.I. (Primary Irritation Index): 0.5 ml of 1% solution in 1,3-butylene glycol:ethanol 7:3, observed 24 or 72 hours later; for Evaluation (skin irritation): 1% solution, according to Draize's P.I.I.", "description": "as §1, §2"}},
  "note": "Where two headings read alike, the source gives them in different places.",
  "data": [
    {"compound": "N-[4-(N-hydroxycarbamoyl)phenyl]adamantyl carboxyamide [Example 10]", "values": [
      {"measurement": "Evaluation (skin irritation)", "setting": "rabbits [1]", "value": "No irritation"},
      {"measurement": "P.I.I. (Primary Irritation Index)", "setting": "rabbits [1]", "value": 0.375},
      {"measurement": "Luciferase activity RARγ", "setting": "RARγ", "value": 12000},
      {"measurement": "Evaluation (phototoxicity)", "setting": "white guinea pigs", "value": "No phototoxicity (lower value than 0.5, criterion value to be estimated as no phototoxicity)"},
      {"measurement": "Phototoxic index", "setting": "white guinea pigs", "value": 0},
      {"measurement": "Collagen biosynthesis (%)", "setting": "procollagen type I", "value": 106, "unit": "%"},
      {"measurement": "Collagenase expression (%)", "setting": "collagenase", "value": 75, "unit": "%"},
      {"measurement": "Luciferase activity RARα", "setting": "RARα", "value": 11000},
      {"measurement": "Elastase expression (%)", "setting": "elastase", "value": 77, "unit": "%"}
    ]},
    {"compound": "CN(C(=O)c1ccc(C(C)(C)C)cc1)c1ccc(C(=O)NO)cc1", "note": "[Example 19, N-[4-(N-hydroxycarbamoyl)phenyl]-N-methyl-[4-tert-butylphenyl]carboxyamide]", "values": [
      {"measurement": "Evaluation (skin irritation)", "setting": "rabbits [1]", "value": "No irritation"},
      {"measurement": "P.I.I. (Primary Irritation Index)", "setting": "rabbits [1]", "value": 0.223},
      {"measurement": "Luciferase activity RARγ", "setting": "RARγ", "value": 11200},
      {"measurement": "Evaluation (phototoxicity)", "setting": "white guinea pigs", "value": "No phototoxicity (lower value than 0.5, criterion value to be estimated as no phototoxicity)"},
      {"measurement": "Phototoxic index", "setting": "white guinea pigs", "value": 0},
      {"measurement": "Collagen biosynthesis (%)", "setting": "procollagen type I", "value": 120, "unit": "%"},
      {"measurement": "Collagenase expression (%)", "setting": "collagenase", "value": 70, "unit": "%"},
      {"measurement": "Luciferase activity RARα", "setting": "RARα", "value": 10020},
      {"measurement": "Elastase expression (%)", "setting": "elastase", "value": 80, "unit": "%"}
    ]},
    {"compound": "O=C(Cc1ccc(NC(=O)c2ccccc2)cc1)NO", "note": "[Example 23, N-[4-(N-hydroxycarbamoylmethyl)phenyl]benzamide]", "values": [
      {"measurement": "Evaluation (skin irritation)", "setting": "rabbits [1]", "value": "No irritation"},
      {"measurement": "P.I.I. (Primary Irritation Index)", "setting": "rabbits [1]", "value": 0.321},
      {"measurement": "Luciferase activity RARγ", "setting": "RARγ", "value": 13200},
      {"measurement": "Evaluation (phototoxicity)", "setting": "white guinea pigs", "value": "No phototoxicity (lower value than 0.5, criterion value to be estimated as no phototoxicity)"},
      {"measurement": "Phototoxic index", "setting": "white guinea pigs", "value": 0},
      {"measurement": "Collagen biosynthesis (%)", "setting": "procollagen type I", "value": 131, "unit": "%"},
      {"measurement": "Collagenase expression (%)", "setting": "collagenase", "value": 77, "unit": "%"},
      {"measurement": "Luciferase activity RARα", "setting": "RARα", "value": 13000},
      {"measurement": "Elastase expression (%)", "setting": "elastase", "value": 79, "unit": "%"}
    ]},
    {"compound": "Cc1ccc(C(=O)Nc2ccc(C(=O)NO)cc2)cc1", "note": "[Example 2, N-[4-(N-hydroxycarbamoyl)phenyl][4-methylphenyl]carboxyamide]", "values": [
      {"measurement": "Luciferase activity RARγ", "setting": "RARγ", "value": 11200},
      {"measurement": "P.I.I. (Primary Irritation Index)", "setting": "rabbits [2]", "value": 0.345},
      {"measurement": "Evaluation (skin irritation)", "setting": "rabbits [2]", "value": "No irritation"},
      {"measurement": "Evaluation (phototoxicity)", "setting": "white guinea pigs", "value": "No phototoxicity (lower value than 0.5, criterion value to be estimated as no phototoxicity)"},
      {"measurement": "Phototoxic index", "setting": "white guinea pigs", "value": 0},
      {"measurement": "Collagen biosynthesis (%)", "setting": "procollagen type I", "value": 118, "unit": "%"},
      {"measurement": "Collagenase expression (%)", "setting": "collagenase", "value": 68, "unit": "%"},
      {"measurement": "Luciferase activity RARα", "setting": "RARα", "value": 12000},
      {"measurement": "Elastase expression (%)", "setting": "elastase", "value": 78, "unit": "%"}
    ]},
    {"compound": "Cc1ccc(C(=O)Nc2ccc(CC(=O)NO)cc2)cc1C", "note": "[Example 31, N-[4-(N-hydroxycarbamoylmethyl)phenyl][3,4-dimethylphenyl]carboxyamide]", "values": [
      {"measurement": "Luciferase activity RARγ", "setting": "RARγ", "value": 10700},
      {"measurement": "P.I.I. (Primary Irritation Index)", "setting": "rabbits [2]", "value": 0.567},
      {"measurement": "Evaluation (skin irritation)", "setting": "rabbits [2]", "value": "No irritation"},
      {"measurement": "Evaluation (phototoxicity)", "setting": "white guinea pigs", "value": "No phototoxicity (lower value than 0.5, criterion value to be estimated as no phototoxicity)"},
      {"measurement": "Phototoxic index", "setting": "white guinea pigs", "value": 0},
      {"measurement": "Collagen biosynthesis (%)", "setting": "procollagen type I", "value": 109, "unit": "%"},
      {"measurement": "Collagenase expression (%)", "setting": "collagenase", "value": 81, "unit": "%"},
      {"measurement": "Luciferase activity RARα", "setting": "RARα", "value": 23100},
      {"measurement": "Elastase expression (%)", "setting": "elastase", "value": 63, "unit": "%"}
    ]},
    {"compound": "CC(C)(C)c1ccc(C(=O)Nc2ccc(CC(=O)NO)cc2)cc1", "note": "[Example 30, N-[4-(N-hydroxycarbamoylmethyl)phenyl][4-tert-butylphenyl]carboxyamide]", "values": [
      {"measurement": "Luciferase activity RARγ", "setting": "RARγ", "value": 12000},
      {"measurement": "P.I.I. (Primary Irritation Index)", "setting": "rabbits [2]", "value": 0.456},
      {"measurement": "Evaluation (skin irritation)", "setting": "rabbits [2]", "value": "No irritation"},
      {"measurement": "Evaluation (phototoxicity)", "setting": "white guinea pigs", "value": "No phototoxicity (lower value than 0.5, criterion value to be estimated as no phototoxicity)"},
      {"measurement": "Phototoxic index", "setting": "white guinea pigs", "value": 0},
      {"measurement": "Collagen biosynthesis (%)", "setting": "procollagen type I", "value": 121, "unit": "%"},
      {"measurement": "Collagenase expression (%)", "setting": "collagenase", "value": 83, "unit": "%"},
      {"measurement": "Luciferase activity RARα", "setting": "RARα", "value": 23500},
      {"measurement": "Elastase expression (%)", "setting": "elastase", "value": 69, "unit": "%"}
    ]}
  ]
}
